Bounds are passed on as bounds.

This note sets out measurements from patent publication US20260284075A1, “UNIT DOSAGE COMPOSITION COMPRISING MIDAZOLAM” (B. Braun Melsungen AG, priority 2023, published 2026).

This data set can be described thus: Pharmacokinetic evaluation of oral thin films in dogs (midazolam in plasma, LC-MS/MS). As to conditions: from cyclodextrin-containing films. Type of data set: in vivo, Marshall Beagle dogs.

Experimental: To investigate the local tolerability and pharmacokinetics of the four oral thin films prepared according to Example 1, the oral thin films containing 3.0 mg of midazolam HCl (corresponding to 2.7 mg of midazolam free base) were subsequently applied to 6 non-naïve Marshall Beagle dogs (3 male weighing 8.6-11 kg and 3 female weighing 7.5-8.1 kg) with at least 3 days washout phase between the treatments. DORMICUM® 7.5 mg tablets and a Midazolam 5 mg/mL solution for injection/infusion (obtained from B. Braun) were used as reference. The dogs were fastened before dose administration and during the period of the experiment. On the days of treatment, the animals were offered their first daily meal after collection of the blood sample 2 hours after dose, and the second meal of the day was given after collection of the blood sample 6 hours after dose.
Blood samples were taken from the dogs before the treatment, and 2, 5, 10, 30, 60, 120, and 360 minutes after the dose administration. Blood samples of approximately 2 mL were collected from the saphenous vein. […]
The concentration of midazolam in the blood samples was determined using validated liquid chromatography-mass spectrometry (LC-MS/MS) methods. […] The concentration of analytes in unknown samples was calculated using the analyte/internal standard area ratios. […] It was well mixed and the samples analyzed by using LC-MS/MS.

As to `Cc1ncc2n1-c1ccc(Cl)cc1C(c1ccccc1F)=NC2` [midazolam, 8-chloro-6-(2-fluoropheny)-1-methyl-4H-imidazo[1,5-α][1,4]benzodiazepine], the “time within which midazolam is absorbed through the oral mucosa” value is on record as at most 10 min.
